Results from patent US7390836B2, “Small molecules used to increase cell death” (priority 1999, dated 2008).
Where two headings read alike, the source gives them in different places.

Assays:
[1] = tested on: Bak BH3 peptide / Bcl-xL (Bcl-xL/GST, Bcl-xL-His6) interaction; experiment: Fluorescence polarization assay, labeled Bak BH3 peptide binding to Bcl-xL fusion protein; settings: for order of affinities of BH3Is: overall rank order from FP, NMR, pulldown and SELDI results; for order of decreasing affinity, fluorescence polarization assays: rank order
Excerpt: We have used a fluorescence polarization assay to screen a library of 16,000 chemical compounds (ChemBridge, San Diego, Calif.) to identify small molecules that inhibit the interaction between a peptide corresponding to the BH3 domain of a pro-apoptotic protein and a recombinant Bcl-xL/GST fusion protein. In this assay, an […] peptide corresponding to the BH3 domain of Bak was used. The Bak peptide was labeled with a fluorescent tag, such as OREGON GREEN. Upon binding of the tagged peptide to the Bcl-xL/GST fusion protein, the polarization of light emitted by the tagged peptide is altered. […] Conversely, in a sample in which a compound does inhibit the interaction between the Bak peptide and the Bcl-xL/GST fusion protein the polarization of light emitted by the peptide will not be altered.
A nineteen amino acid Bak peptide, corresponding to the BH3 domain of Bak, with the sequence […] (SEQ ID NO: 2) was labeled with the fluorophore OREGON GREEN according to the manufacturer's instructions (Molecular Probes, Eugene, Oreg.). In addition, a recombinant Bcl-xL/GST fusion protein was generated using conventional techniques known to those skilled in the fields of biochemistry and molecular biology. The interaction between the Bak peptide and the Bcl-xL/GST fusion protein was confirmed.
A screen of approximately 16,000 compounds from the ChemBridge chemical compound library was conducted to identify compounds that disrupt the interaction between the Bak peptide and the Bcl-xL/GST fusion protein. The ability of a compound to disrupt the interaction between the two polypeptides was assessed using a fluorescence polarization assay. The Bak peptide and Bcl-xL/GST fusion protein (15 nM each; dissolved in PBS) were first combined, and then the compound was added. Alternatively, the Bak peptide, Bcl-xL/GST fusion protein, and test compound (5 mg/ml; dissolved in 0.1-0.5 gl of DMSO) may be combined in any order. Normally the unbound Bak polypeptide results in polarization of approximately 40 mP units. Upon binding of the Bcl-xL/GST fusion protein, polarization increased to approximately 100-120 mP units.
In a preferred method, the fluorescence assay was carried out as follows. Bak BH3 peptide (Research Genetics) was labeled using NHS-OREGON GREEN (Molecular Probes) and purified by HPLC. For the initial screening assays, 33 nM of labeled BH3 peptide, 2 μM of GST-Bcl-xL protein, 0.1% bovine gamma globulin (BGG, Sigma) and 1 mM DTT mixed with PBS, pH 7.2 (Gibco) were added into 384 well black plates (Lab Systems) using MULTIDROP (Lab Systems). Small molecules (5 mg/ml in DMSO, ChemBridge) were transferred using plastic 384-pin arrays (Genetix). The plates were incubated for 1-2 hr at 25° C., and the fluorescence polarization assay values were determined using an Analyst plate reader (LJL Biosystems). Reactions containing 16.65 nM of labeled BH3 peptide and 4.2 μM of Bcl-xL-His6 fusion protein, which was previously utilized to characterize BH3/Bcl-xL binding (Sattler et al., Science 275:983-6, 1997) were used for the further fluorescence polarization analyses. Kd and Ki determination was performed as previously described using […] PRISM software package (GraphPad) (Dandliker et al., Methods Enzymol. 74:3-28,1981).
In a further screen, various concentrations of each of the above-identified compounds were evaluated for their potency. A serial dilution of each chemical compound was performed and the fluorescence polarization assay was repeated, as per the primary screen. As a result of the secondary screening, three compounds, chemical compound ID numbers 275805 (BH3I-1; FIG. 1), 282986 (BH3I-1′; FIG. 2), and 175362 (BH3I-2; FIG. 3), collectively termed “BH3Is,” were identified to disrupt the interaction between Bak and the BCL-xL/GST fusion protein. […] Additional homologues of the BH3I-1s (BH3I-1″ and BH3I-1′″) and BH3I-2 (BH3-2″ and BH3I-2″) were also analyzed in the study (FIG. 4). […]

[2] = target: T1, Bad / Bcl-xL on mitochondria isolated from 293 cells (Homo sapiens, UniProt Q07817); experiment: Mitochondrial association of Bad in isolated mitochondria; settings: rank order
T1 construct: expressed in transfected cells; host or cells: 293 cells (isolated mitochondria)
T1 sequence (Q07817 whole entry): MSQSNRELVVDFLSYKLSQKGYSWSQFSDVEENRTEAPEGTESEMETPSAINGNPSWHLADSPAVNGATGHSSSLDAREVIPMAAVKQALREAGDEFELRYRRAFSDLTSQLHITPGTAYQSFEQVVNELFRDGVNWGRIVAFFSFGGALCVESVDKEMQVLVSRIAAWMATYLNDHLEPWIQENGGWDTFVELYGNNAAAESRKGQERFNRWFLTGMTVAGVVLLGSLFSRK
Experimental: FIG. 8C is an images of a the expression of Bad and Bcl-xL in 293 cells co-transfected with HA-Bad and Bcl-xL-T7. After 48 hr, cells were harvested and isolated mitochondria were treated with BH3Is for 2 hrs. Following treatment, mitochondria were pelleted by centrifugation and subjected to Western blot analysis using anti-HA and anti-T 7 antibodies.
BH3Is disrupted the mitochondrial association of Bad, but not Bcl-xL, after in vitro treatment of the mitochondria isolated from 293 cells co-transfected with Bad and Bcl-xL (FIG. 8C). The relative activities of the BH3Is in this assay (BH3I-2>BH3I-1>BH3I-1″) were consistent with the previous results. […] Again, the order of the activities in these assays was BH3I-2>BH3I-1>BH3I-1″.

Jurkat cells = experiment: Cytotoxicity by MTS assay and propidium iodide uptake; format: cell-based
Experimental: Since BH3Is induce apoptosis, their mode of action, for example, through disruption of BH3 domain interactions, was investigated next. If apoptosis induced by a BH3I is BH3-dependent, then cytotoxicity should correlate with the compound's ability to disrupt BH3 domain interactions in vitro. To examine this possibility, Jurkat cells were treated with the BH3 Is and the occurrence of cell death was assayed by the MTS assay and propidium iodide (PI) uptake (FIG. 7A). The cytotoxicity of BH3-Is followed the order of BH3I-2′>BH3I-2>BH3I-2″>BH3I-1>BH3I-1′>BH3I-1″>BH3I-1′″ which paralleled the order of their Ki values determined using in vitro Bcl-xL binding assays (FIGS. 7B and 7C). Similar data were obtained using a trypan blue exclusion assay.

[3] = MTS assay and PI uptake, rank order

Structure (SMILES) | order of affinities of BH3Is [1] | order of decreasing affinity, fluorescence polarization assays [1] | relative activities, mitochondrial association of Bad [2] | order of cytotoxicity (Jurkat cells) | order of cytotoxicity (Jurkat cells; [3])
CC(C)C(C(=O)O)N1C(=O)/C(=C/c2ccccc2)SC1=S (stereo not drawn) [BH3I-1″] | BH312′>BH3I-2>BH3I-2″>BH3I-1>BH3I-1′>BH3I-1″>BH3I-1′″ | BH3I-1>BH3I-1′>BH3I-2′>BH3I-2>BH3I-2″>BH3I-1″ | BH3I-2>BH3I-1>BH3I-1″ | BH3I-2′>BH3I-2>BH3I-2″>BH3I-1>BH3I-1′>BH3I-1″>BH3I-1′″ | –
CC(C)C(C(=O)O)N1C(=O)C(=Cc2ccc(Br)cc2)SC1=S (stereo in doubt) [BH3I-1] | BH312′>BH3I-2>BH3I-2″>BH3I-1>BH3I-1′>BH3I-1″>BH3I-1′″ | BH3I-1>BH3I-1′>BH3I-2′>BH3I-2>BH3I-2″>BH3I-1″ | BH3I-2>BH3I-1>BH3I-1″ | – | BH3I-2′>BH3I-2>BH3I-2″>BH3I-1>BH3I-1′>BH3I-1″>BH3I-1′″
O=C(Nc1cc(S(=O)(=O)c2ccc(Cl)cc2)ccc1Cl)c1cc(Cl)cc(Br)c1O [BH3I-2] | BH312′>BH3I-2>BH3I-2″>BH3I-1>BH3I-1′>BH3I-1″>BH3I-1′″ | BH3I-1>BH3I-1′>BH3I-2′>BH3I-2>BH3I-2″>BH3I-1″ | BH3I-2>BH3I-1>BH3I-1″ | – | BH3I-2′>BH3I-2>BH3I-2″>BH3I-1>BH3I-1′>BH3I-1″>BH3I-1′″
